Assay results from US20210290784A1, “POSITRON EMISSION TOMOGRAPHY (PET) RADIOTRACERS FOR IMAGING MACROPHAGE COLONY-STIMULATING FACTOR 1 RECEPTOR (CSF1R) IN NEUROINFLAMMATION” (The Johns Hopkins University, priority 2018, published 2021).
Entries after “also recorded” stand apart in the source; their conditions may differ.

Columns and labels:
CSF1R [1] = assay: Brain uptake in CSF1R knock-out vs control mice; assay type: in vivo; conditions: whole brain, 45 min
Description: B6.Cg-Csf1rtml.2Jwp/J (CSF1R knock-out, KO) mice (21-23 g; age=four to eight weeks; Jackson Laboratories, Bar Harbor, Me.) (5 animals) and age-matched C57BL/6J controls (23-27 g) (5 animals) were used. […] The outcome variables were calculated as % SUV.

[2] = Whole-body radiation dosimetry in mice, extrapolated to human; assay type: in vivo
Description: Male CD-1 mice were injected with [^11C]CPPC as described above for baseline studies and were euthanized at 10, 30, 45, 60, and 90 min after treatment. The various organs were quickly removed and percentage injected dose (% ID) per organ was determined. The human radiation dosimetry of [^11C]CPPC was extrapolated from the mouse biodistribution data using SAAM II (Simulation Analysis and Modeling II) and OLINDA/EXM software. The data were analyzed commercially (RADAR, Inc).
Radiation dosimetry for [^11C]CPPC was studied in fifteen male CD-1 mice (23-27 g) following our published procedure (Stabin M G, et al. (2005)). A solution of [^11C]CPPC in 0.2 ml of saline (7.4 MBq or 0.2 mCi) was injected as a bolus into the lateral tail vein, and groups of mice (n=3) were euthanized at 10, 30, 45, 60, and 90 min after the radiotracer injection. The lungs, heart, kidneys, liver, spleen, intestine, stomach, and brain were quickly removed and put on ice. One femur and samples of thigh muscle, bone marrow and blood were also collected. The organs were weighed, and the tissue radioactivity was measured with an automated gamma counter (LKB Wallac 1282 CompuGamma CS Universal Gamma Counter). The percent injected dose per organ (% ID/organ) was calculated by comparison with samples of a standard dilution of the initial dose. All measurements were corrected for decay. Resultant values of % ID/organ were fit using the SAAM II software (Foster D M (1998)). Time integrals of activity (Stabin M G and Siegel J A (2003)) were entered into the OLINDA/EXM software (Stabin M G, et al. (2005)), using the adult male model. […] The number of disintegrations in the remainder of body was assumed to be equal to 100% of the activity administered integrated to total decay of ^11C, minus the disintegrations in other body organs.

CSF1R [3] = biological target: T1, CSF1R (Mus musculus, UniProt P09581)
T1 sequence (P09581 20-977): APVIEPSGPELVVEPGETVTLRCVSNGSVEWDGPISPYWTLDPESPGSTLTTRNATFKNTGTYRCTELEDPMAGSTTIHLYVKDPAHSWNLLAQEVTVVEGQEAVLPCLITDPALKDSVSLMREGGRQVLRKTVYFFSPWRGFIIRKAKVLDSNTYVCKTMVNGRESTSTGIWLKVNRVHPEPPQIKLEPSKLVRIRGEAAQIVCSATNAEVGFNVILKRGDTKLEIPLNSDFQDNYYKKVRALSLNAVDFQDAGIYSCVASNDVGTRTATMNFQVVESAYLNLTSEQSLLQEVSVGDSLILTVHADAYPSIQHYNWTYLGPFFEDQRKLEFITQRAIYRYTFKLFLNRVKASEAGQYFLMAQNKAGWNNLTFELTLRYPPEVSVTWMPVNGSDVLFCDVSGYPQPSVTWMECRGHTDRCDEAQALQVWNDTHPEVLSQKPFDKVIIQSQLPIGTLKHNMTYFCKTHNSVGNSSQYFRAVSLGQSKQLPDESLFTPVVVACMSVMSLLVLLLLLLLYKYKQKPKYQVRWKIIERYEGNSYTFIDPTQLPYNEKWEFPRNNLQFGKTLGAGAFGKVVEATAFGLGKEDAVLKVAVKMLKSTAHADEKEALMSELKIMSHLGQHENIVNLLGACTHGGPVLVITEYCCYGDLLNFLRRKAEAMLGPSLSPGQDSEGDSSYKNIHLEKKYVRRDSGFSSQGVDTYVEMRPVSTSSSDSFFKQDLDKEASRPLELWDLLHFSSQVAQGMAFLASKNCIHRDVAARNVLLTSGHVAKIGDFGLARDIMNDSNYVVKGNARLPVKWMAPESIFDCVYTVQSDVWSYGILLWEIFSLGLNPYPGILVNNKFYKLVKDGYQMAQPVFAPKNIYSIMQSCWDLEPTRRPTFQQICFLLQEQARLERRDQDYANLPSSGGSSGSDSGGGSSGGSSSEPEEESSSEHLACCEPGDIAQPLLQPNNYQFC

[4] = male, baboon, in vivo, 90 min
CSF1R [5] = assay: Baboon PET (baseline, LPS, LPS-plus-blocking)
[6] = two exponential fit of % ID/organ

With [11CH3]N1CCN(c2ccc(NC(=O)c3ccc(C#N)o3)c(N3CCCCC3)c2)CC1 [[^11C]CPPC, 5-cyano-N-(4-(4-[^11C]methylpiperazin-1-yl)-2-(piperidin-1-yl)phenyl)furan-2-carboxamide] the “brain uptake (% SUV) in CSF1R KO mouse brain vs. controls” value (CSF1R [1]) was “comparable”, the “Activity observed in the intestines” value ([2]; CD-1 mice) was roughly 35% and the “radiation burden to a human subject vs FDA limit” value ([2]; proposed dose of 740 MBq (20 mCi)) was less than 5 Rem. The “fitted metabolic model, Brain, first component %” value [2, 6] was 3.83%, the “fitted metabolic model, Brain, first component T-bio” value [2, 6] was 0.302 h and the “fitted metabolic model, Brain, second component %” value [2, 6] was 0.38%. For the same compound, the “fitted metabolic model, Brain, second component T-bio” value [2, 6] was “∞”, the “fitted metabolic model, Heart, first component %” value [2, 6] was 1.00% and the “fitted metabolic model, Heart, first component T-bio” value [2, 6] was 0.272 h. The “fitted metabolic model, Heart, second component %” value [2, 6] was 0.14%, the “fitted metabolic model, Heart, second component T-bio” value [2, 6] was “∞” and the “fitted metabolic model, Kidneys, first component %” value [2, 6] was 8.32%. The “fitted metabolic model, Kidneys, first component T-bio” value [2, 6] was 0.297 h, the “fitted metabolic model, Kidneys, second component %” value [2, 6] was 1.52% and the “fitted metabolic model, Kidneys, second component T-bio” value [2, 6] was “∞”. The “fitted metabolic model, Liver, first component %” value [2, 6] was 97.6%, the “fitted metabolic model, Liver, first component T-bio” value [2, 6] was 0.764 h and the “fitted metabolic model, Liver, second component %” value [2, 6] was −100%. For the same compound, the “fitted metabolic model, Liver, second component T-bio” value [2, 6] was 0.335 h, the “fitted metabolic model, Lungs, first component %” value [2, 6] was 8.27% and the “fitted metabolic model, Lungs, first component T-bio” value [2, 6] was 0.159 h. For the same compound, the “fitted metabolic model, Lungs, second component %” value [2, 6] was 1.53%, the “fitted metabolic model, Lungs, second component T-bio” value [2, 6] was 2.27 h and the “fitted metabolic model, Spleen, first component %” value [2, 6] was 1.43%. The “fitted metabolic model, Spleen, first component T-bio” value [2, 6] was 0.823 h, the “fitted metabolic model, Spleen, second component %” value [2, 6] was −1.24% and the “fitted metabolic model, Spleen, second component T-bio” value [2, 6] was 0.145 h. The “ex vivo binding potential (BPex vivo)” value (CSF1R [3]; LPS mice, (LPS uptake-sham uptake)/sham uptake) was 0.53-0.62, the “SUVR uptake in i.p.-LPS mice vs controls” value (CSF1R [3]; experiments 2 and 3, blood-corrected, 45 min) was “significantly greater” and the “blocking with nonradiolabeled CPPC, % SUV radioactivity (experiment 1)” value (CSF1R [3]; i.p.-LPS mice, CPPC 1 mg/kg IP, no blood correction) was “did not cause a significant reduction”. For the same compound, the “specific fraction of whole-brain binding” value (CSF1R [3]; i.p.-LPS mice, blocking with CPPC and compound 8) was “more than 50%”, the “total radiometabolites in blood” value [4] was 71-76% and the “parametric VT” value (CSF1R [5]; LPS-treated baboon (0.05 mg/kg i.v., 4 h before radiotracer)) was 35-52. The “K1 value, LPS-treated vs baseline” value (CSF1R [5]; baboon) was “changed only slightly”, the “decrease of metabolite-corrected radioactivity in plasma, LPS-treated vs. baseline” value (CSF1R [5]; baboon) was roughly 50% and the “parametric VT” value (CSF1R [5]; baboon baseline) was 15-25. For the same compound, the “peak SUV, brain” value (CSF1R [5]; baboon baseline, 20 min postinjection) was 2.5-4.0, the “increase of distribution volume (VT) values in all brain regions of LPS-treated animal” value (CSF1R [5]; baboon, LPS 0.05 mg/kg i.v.) was “More than a twofold increase” and the “VT in LPS-plus-blocking study” value (CSF1R [5]; baboon, blocker CPPC 1 mg/kg s.c. 1.5 h before radiotracer) was “reduction to the baseline level; also recorded: return to the baseline level”.
